# Source: patent publication US6392055B1, “Synthesis and biological evaluation of analogs of the antimitotic marine natural product curacin A” (The University of Pittsburgh, priority 2000, dated 2002)
# Read-outs that look alike come from different tables or passages of the source.
# Legend:
# [1] = test system: tubulin (colchicine site); assay: Inhibition of [3H]colchicine binding to tubulin; set-up: species or system bovine; details: for Percent Colchicine Binding Inhibition (CBI), 1 μM: 1 μM compound; for % CBI 5 μM, (30° C.) / % CBI 50 μM, (30° C.): 30° C. (values in parentheses); for IC50: 5 μM [3H]colchicine, 1 μM tubulin; for displacement of pre-bound [3H]colchicine from tubulin, 30° C. / displacement of pre-bound [3H]colchicine from tubulin, 37° C.: equimolar (5 μM) concentration
# Method: Assays to determine whether 15mix-17mix inhibited binding of [^3H]colchicine to tubulin at both 30° C. and 37° C. were performed. This was accomplished using methods described previously. Kang, G.-J.; Getahun, Z.; Muzaffar, A.; Brossi, A.; Hamel, E. J. Biol. Chem. 1990, 265, 10255; Verdier-Pinard, P.; Lai, J.-Y.; Yoo, H.-D.; Yu, J.; Marquez, B.; Nagle, D. G.; Nambu, M.; White, J. D.; Falck, J. R.; Gerwick, W. H.; Day, B. W.; Hamel, E. Mol. Pharmacol. 1998, 53, 62. Briefly, 5 μM [^3H]colchicine (2.3 TBq/mmol), drug (1, 5, 10, 50, or 250 μM), or vehicle (DMSO, 5% v/v) were incubated at 30° C. for 15 minutes or at 37° C. for 10 minutes with 1 μM tubulin in the presence of 1 M monosodium glutamate, 0.1 M glucose-1-phosphate, 1 mM MgCl2, 1 mM GTP, and 0.5 mg/mL bovine serum albumin. The solutions were filtered through two stacks of DEAE-cellulose filters and the radioactivity in the filtrate was determined by scintillation spectrometry. Each series of determinations included positive controls of 1, 5, and/or 50 μM curacin A.
# [2] = test system: isolated bovine brain tubulin; assay: Inhibition of GTP/glutamate-induced tubulin polymerization (turbidimetric, 30° C.); assay type: biochemical; details: for Percent Tubulin Polymerization Inhibition (TPI), 5 μM / % TPI 5 μM: 5 μM compound
# [3] = test system: MDA-MB231 cells; assay: Growth inhibition of breast carcinoma cells (MTS); assay type: cell-based, human
# [4] = test system: PC-3 cells; assay: Growth inhibition of prostate carcinoma cells (MTS); assay type: cell-based, human
# [5] = test system: 2008 cells; assay: Growth inhibition of ovarian carcinoma cells (MTS); assay type: cell-based, human
# [6] = 96 h, Table II prints no unit, read-out: GI50 MDA 96 h
# [7] = read-out: GI50 MDA 48 h, 48 h, Table II prints no unit
# [8] = 96 h, Table II prints no unit, read-out: GI50 PC3 96 h
# [9] = read-out: GI50 PC3 48 h, 48 h, Table II prints no unit
# [10] = 96 h, Table II prints no unit, read-out: GI50 2008 96 h
# [11] = read-out: GI50 2008 48 h, 48 h, Table II prints no unit
# [12] = 96 h, read-out: GI50 MDA-MB231 (breast) 96 h
# [13] = read-out: GI50 MDA-MB231 (breast) 48 h, 48 h
# [14] = 96 h, read-out: GI50 PC3 (prostate) 96 h
# [15] = read-out: GI50 PC3 (prostate) 48 h, 48 h
# [16] = 96 h, read-out: GI50 2008 (ovarian) 96 h
# [17] = read-out: GI50 2008 (ovarian) 48 h, 48 h
# [18] = incubation at 30° C. for 15 minutes, read-out: 50% Colchicine Binding Inhibitory Concentration (CBI), 30° C.
# [19] = incubation at 37° C. for 10 minutes, read-out: 50% Colchicine Binding Inhibitory Concentration (CBI), 37° C.
# [20] = read-out: 50% Tubulin Polymerization Inhibition Concentration (TPI) IC50, 30° C., 10 μM tubulin
# [21] = 30° C. turbidimetric assay, N=2 over 4 concentrations, read-out: IC50, inhibition of GTP/glutamate-induced assembly of tubulin
# [22] = read-out: GI50 breast (MDA-MB231), 48 hours of continuous drug exposure, 48 hours continuous exposure
# [23] = read-out: GI50 prostate (PC3), 48 hours of continuous drug exposure, 48 hours continuous exposure
# [24] = read-out: GI50 ovarian (2008), 48 hours of continuous drug exposure, 48 hours continuous exposure
SMILES,"Percent Colchicine Binding Inhibition (CBI), 1 μM [1] [%]","Percent Colchicine Binding Inhibition (CBI), 5 μM ([1]; 5 μM compound) [%]","Percent Colchicine Binding Inhibition (CBI), 50 μM ([1]; 50 μM compound) [%]","Percent Tubulin Polymerization Inhibition (TPI), 5 μM [2] [%]","GI50 [3, 6] [nM]","GI50 [3, 7] [nM]","GI50 [4, 8] [nM]","GI50 [4, 9] [nM]","GI50 [5, 10] [nM]","GI50 [5, 11] [nM]","% CBI 5 μM, (30° C.) ([1]; 5 μM compound)","% CBI 5 μM, 37° C. ([1]; 5 μM compound) [%]","% CBI 50 μM, (30° C.) ([1]; 50 μM compound)","% CBI 50 μM, 37° C. ([1]; 50 μM compound) [%]",% TPI 5 μM [2] [%],further results
COc1ccc(/C=C\CC/C=C/C=C(\C)CCC(O)c2cc(OC)ccc2OC)c(OC)c1 (centres unmarked) [Compound 19AR6],1.7 ± 13.9,−6.8 ± 13.1,−22.8 ± 8.9,31.2,18300 ± 13600,39300 ± 11300,> 50000,> 50000,32900 ± 3700,35200 ± 2400,,,,,,
C=CC[C@@H](CC/C(C)=C/C=C/CC/C=C\c1coc(C(C)(C)C)n1)OC [JRC2],,,,,,,,,,,(7 ± 5) %,0 ± 17,(7 ± 6) %,−52 ± 14,51,"GI50 [3, 12]: > 50000 nM; GI50 [3, 13]: 36000 ± 22000 nM; GI50 [4, 14]: > 50000 nM; GI50 [4, 15]: > 50000 nM; GI50 [5, 16]: > 50000 nM; GI50 [5, 17]: > 50000 nM"
"COc1cc(C=CCCC=CC=C(C)CCC(O)c2ccco2)cc(OC)c1OC (centres unmarked) [Compound 17a, (4E,1E,10Z)-11-(3,4,5-Trimethoxyphenyl)-4-methyl-1-furan-2-ylundeca-4,6,10-trien-1-ol]",,,,,,,,,,,,,,,,"IC50 [1, 18]: 32000 ± 4000 nM; IC50 [1, 19]: 9000 ± 6000 nM; IC50 [2, 20]: 900 nM; GI50 ([3]; Homo sapiens, MDA-MB-231, 48 h, read-out: GI50 MDA-MB231 (48 h)): 690 ± 100 nM; GI50 ([4]; Homo sapiens, PC-3, 48 h, read-out: GI50 PC-3 (48 h)): 8000 ± 4000 nM; GI50 ([5]; Homo sapiens, Ovarian carcinoma cell, 48 h, read-out: GI50 2008 (48 h)): 2700 ± 1000 nM"
COc1ccc(/C=C\CC/C=C/C=C(\C)CCC(O)c2cc3ccccc3o2)c(OC)c1 (centres unmarked) [Compound 19AR3],0.7 ± 16.2,−50.0 ± 12.7,−29.0 ± 9.2,60.4,6430 ± 7420,42100 ± 1400,49100 ± 8900,> 50000,17700 ± 2700,12200 ± 2700,,,,,,
COc1ccc(/C=C\CC/C=C/C=C(\C)CCC(O)c2cc3ccccc3s2)c(OC)c1 (centres unmarked) [Compound 19AR4],1.4 ± 18.5,−41.0 ± 17.8,−26.4 ± 14.7,60.5,18600 ± 3000,> 50000,> 50000,> 50000,26900 ± 3000,29800 ± 1400,,,,,,
C=CC[C@@H](CC/C(C)=C/C=C/CC/C=C\[C@@H]1CSC([C@@H]2C[C@@H]2C)=N1)OC [curacin A],,84.9 ± 1.07,96.2 ± 0.7,97.9,64 ± 7,186 ± 226,48 ± 8,50 ± 9,26 ± 12,35 ± 7,(78 ± 2) %,87 ± 9,(99 ± 1) %,97 ± 0,98,"Percent Colchicine Binding Inhibition (CBI), 5 μM, re-test value ([1]; 5 μM compound, re-test (in parentheses)): (95.0 ± 0.7*) %; Percent Colchicine Binding Inhibition (CBI), 50 μM, re-test value ([1]; 50 μM compound, re-test (in parentheses)): (97.7 ± 0.0*) %; displacement of pre-bound [3H]colchicine from tubulin, 30° C. [1]: 78±2%; displacement of pre-bound [3H]colchicine from tubulin, 37° C. [1]: 87±9%; IC50 [1, 18]: 900 ± 300 nM; IC50 [1, 19]: 600 ± 100 nM; IC50 [2, 21]: 520 ± 210 nM; IC50 [2, 20]: 780 ± 70 nM; GI50 ([3]; read-out: GI50 MDA-MB231 (48 h), 48 h): 96 ± 60 nM; GI50 [3, 22]: 96 ± 60 nM; GI50 ([4]; read-out: GI50 PC-3 (48 h), 48 h): 50 ± 9 nM; GI50 [4, 23]: 50 ± 9 nM; GI50 ([5]; read-out: GI50 2008 (48 h), 48 h): 35 ± 7 nM; GI50 [5, 24]: 35 ± 7 nM"
COc1cc(/C=N\OC/C=C/C=C(\C)CCC(O)c2cccs2)cc(OC)c1OC (centres unmarked) [JRoxime1],,,,,,,,,,,(48 ± 12) %,53 ± 2.2,(57 ± 15) %,37 ± 8,100,"displacement of pre-bound [3H]colchicine from tubulin, 30° C. [1]: 48±12%; displacement of pre-bound [3H]colchicine from tubulin, 37° C. [1]: 53±2%; IC50 [2, 21]: 170 ± 90 nM; GI50 [3, 12]: 380 ± 200 nM; GI50 [3, 13]: 120 ± 100 nM; GI50 [3, 22]: 120 ± 100 nM; GI50 [4, 14]: 530 ± 390 nM; GI50 [4, 15]: 250 nM; GI50 [4, 23]: 250 ± 80 nM; GI50 [5, 16]: 340 ± 290 nM; GI50 [5, 17]: 240 ± 180 nM; GI50 [5, 24]: 240 ± 180 nM"
